Among the data in PubChem BioAssay (NCI) are TGI and GI50 values, retold here.

Several values for one entry are separate records, joined by “and”; a condition that tells them apart may be missing. Equal values may be shown once.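 Grown in 96-well plates, cells were treated for 48 hours with each compound at five concentrations. Insufficient inhibition: endpoint recorded as highest concentration tested. Abbreviation: GI50, concentration required for 50% inhibition of growth. TGI: total growth inhibition.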

In general, TGI refers to the concentration at which net growth stops. Read a low TGI as more potent growth arrest. Broadly, the GI50 is the concentration that inhibits growth by half.

Test systems include LOX IMVI melanoma; MDA-MB-435; SK-MEL-28 melanoma; 786-0 renal; UACC-62 melanoma; HCT-15 colon; SW-620 colon; SF-295 CNS; MDA-MB-231 breast; SF-539 CNS.
Experiment in all cases: DTP human tumour cell line panel, 48 h

Regarding `Cc1ccc(SCN2CCCCC2)cc1` (tested in a mixture with another compound), the TGI in the experiment with LOX IMVI melanoma stood at 14.3 µM; in the experiment on MDA-MB-435, 25.6 µM; in the experiment with SK-MEL-28 melanoma, 29.7 µM; in the experiment on 786-0 renal it was 29.9 µM; with UACC-62 melanoma, 27700 nM; in the experiment on HCT-15 colon it was 32 µM. The total growth inhibition concentration (TGI) was determined as 56.5 µM with SW-620 colon, 33.1 µM in the experiment with SF-295 CNS and 27.7 µM in the experiment with MDA-MB-231 breast.
As to `CCOC(=O)c1ccccc1NC(c1ccccc1)c1ccc2cccnc2c1O` (configuration not stated), the GI50 in the experiment with LOX IMVI melanoma is 2450 nM; in the experiment on MDA-MB-435, 5410 nM; with SK-MEL-28 melanoma, 3190 nM; in the experiment with 786-0 renal, 3390 nM; in the experiment on SF-539 CNS, 2520 nM; in the experiment on HCT-15 colon it was 2110 nM. Also, the GI50 was 3890 nM with SW-620 colon, 3240 nM with SF-295 CNS and 5590 nM in the experiment with MDA-MB-231 breast. Moreover, the concentration for total growth inhibition (TGI) in the experiment with LOX IMVI melanoma is 11 µM; with MDA-MB-435 it was 61.6 µM; in the experiment with SK-MEL-28 melanoma, greater than 100 µM; with 786-0 renal, greater than 100 µM; with SF-539 CNS it was 10.2 µM; in the experiment with HCT-15 colon, 23.5 µM. The concentration for total growth inhibition (TGI) with SW-620 colon is greater than 100 µM; in the experiment on SF-295 CNS it was greater than 100 µM; with MDA-MB-231 breast it was 72.7 µM.
Consider `N#CC1=C(N)Oc2c(ccc3ccccc23)C1c1ccccc1Cl` (configuration not stated), for which the GI50 with LOX IMVI melanoma is 479 nM; in the experiment with SK-MEL-28 melanoma, 1920 nM; in the experiment with 786-0 renal, 754 nM; with SF-539 CNS it was 233 nM; with UACC-62 melanoma, 677 nM; in the experiment on HCT-15 colon it was 183 nM. Further, the concentration for 50% growth inhibition (GI50) in the experiment with SW-620 colon is 172 nM; in the experiment with SF-295 CNS, 233 nM; in the experiment with MDA-MB-231 breast, 571 nM. Moreover, the TGI in the experiment with LOX IMVI melanoma worked out at 12.1 µM; in the experiment with SK-MEL-28 melanoma it was 22.9 µM; in the experiment on 786-0 renal, 16.4 µM; with SF-539 CNS it was 0.792 µM; in the experiment with UACC-62 melanoma, 17700 nM; in the experiment with HCT-15 colon, 11.4 µM. Further, the TGI with SW-620 colon stood at 14.7 µM; in the experiment on SF-295 CNS, 11.3 µM; with MDA-MB-231 breast it was 14.6 µM.
On to `C[As](C)SCC(COC(=O)c1ccccc1)OC(=O)c1ccccc1` (configuration not stated), for which the GI50 in the experiment with MDA-MB-435 was 19.1 nM; in the experiment on SK-MEL-28 melanoma, 504 nM; in the experiment with 786-0 renal, 100 nM; in the experiment on SF-539 CNS it was 271 nM; in the experiment with UACC-62 melanoma it was 156 nM; with HCT-15 colon it was 35.7 nM. Further, the GI50 with SW-620 colon is 31.4 nM; in the experiment on MDA-MB-231 breast it was 463 nM. Besides, the total growth inhibition concentration (TGI) with MDA-MB-435 came out at 0.0664 µM; in the experiment on SK-MEL-28 melanoma it was 17.4 µM; in the experiment on 786-0 renal, 0.556 µM; with SF-539 CNS, 0.775 µM; with UACC-62 melanoma, 1370 nM; with HCT-15 colon, 1.4 µM. Besides, the TGI in the experiment on SW-620 colon worked out at 1.66 µM; with SF-295 CNS, 1.35 µM; with MDA-MB-231 breast, 2.97 µM.
On to `O=C(CN1C(=O)c2ccccc2C1=O)NC1(C(=O)O)CCCC1`, for which the TGI in the experiment on LOX IMVI melanoma is greater than 100 µM; in the experiment on MDA-MB-435, greater than 100 µM; in the experiment on SK-MEL-28 melanoma, greater than 100 µM; in the experiment on 786-0 renal it was greater than 100 µM; with UACC-62 melanoma, greater than 100000 nM; in the experiment on HCT-15 colon it was greater than 100 µM. The concentration for total growth inhibition (TGI) in the experiment with SW-620 colon, with SF-295 CNS and with MDA-MB-231 breast was greater than 100 µM each time.
On to `COc1cccc2c1C(=N)c1c(O)c3c(c(O)c1C2=O)C[C@@](O)(C(C)=O)C[C@@H]3OC1CC(N)C(O)C(C)O1` (some centres not stated), for which the GI50 in the experiment with MDA-MB-435 was 1100 nM; in the experiment with 786-0 renal, 76.6 nM; with MDA-MB-231 breast, 445 nM. Moreover, the TGI with MDA-MB-435 was 4.47 µM; with SK-MEL-28 melanoma, 5.83 µM and 13.7 µM and 20.1 µM; with UACC-62 melanoma, 1610 nM and 1900 nM and 2610 nM; with HCT-15 colon, 28 µM and 32.8 µM; with SW-620 colon, 4.39 µM and 8.73 µM and 10.5 µM; in the experiment with MDA-MB-231 breast, 2.18 µM.
On to `C[CH2][Ge]1([CH2]C)[CH2]CC2(CCN(CCCN(C)C)C2)C[CH2]1`, for which the GI50 with MDA-MB-435 was 289 nM; in the experiment on SK-MEL-28 melanoma, 1340 nM and 1790 nM; in the experiment on 786-0 renal it was 1430 nM; in the experiment with SF-539 CNS, 1780 nM and 1710 nM; in the experiment with UACC-62 melanoma it was 875 nM and 1570 nM; in the experiment with HCT-15 colon, 1070 nM and 1510 nM. Moreover, the GI50 in the experiment with SW-620 colon is 1460 nM and 1650 nM; with SF-295 CNS it was 1700 nM and 2420 nM; in the experiment on MDA-MB-231 breast, 1460 nM. The TGI in the experiment on MDA-MB-435 was 0.843 µM; in the experiment with SK-MEL-28 melanoma, 2.71 µM and 3.27 µM; in the experiment on 786-0 renal it was 2.87 µM; in the experiment on SF-539 CNS, 3.54 µM and 3.34 µM; in the experiment on UACC-62 melanoma, 1780 nM and 3190 nM; in the experiment with HCT-15 colon it was 2.74 µM and 2.65 µM. The TGI is 2.89 µM and 2.31 µM in the experiment on SW-620 colon; 3.17 µM and 3.67 µM in the experiment on SF-295 CNS; 2.96 µM in the experiment with MDA-MB-231 breast.
Turning to `CNCc1ccc(C)c(NC(=O)c2ccc(Nc3nc(-c4ccccc4)c4ccccc4n3)cc2)c1`, the GI50 was 1670 nM with LOX IMVI melanoma; 1600 nM in the experiment with MDA-MB-435; 1760 nM in the experiment with 786-0 renal; 1820 nM with SF-539 CNS; 1690 nM in the experiment on HCT-15 colon; 1840 nM in the experiment with SW-620 colon. For the same compound, the GI50 in the experiment with SF-295 CNS was 1840 nM; in the experiment with MDA-MB-231 breast, 1740 nM. Moreover, the TGI with LOX IMVI melanoma was determined as 3.13 µM; in the experiment on MDA-MB-435 it was 3.22 µM; with 786-0 renal, 3.3 µM; in the experiment on SF-539 CNS it was 3.46 µM; with HCT-15 colon, 3.35 µM; in the experiment with SW-620 colon, 3.57 µM. Also, the values for the TGI in the experiment on SF-295 CNS and with MDA-MB-231 breast were 3.56 µM and 3.43 µM, respectively.
Turning to `Oc1ccc(-c2nc(-c3ccc4oc5ccc(-c6[nH]c(-c7ccc(O)cc7)nc6-c6ccccc6)cc5c4c3)c(-c3ccccc3)[nH]2)cc1`, the GI50 is 2850 nM in the experiment on MDA-MB-435; 7390 nM with SK-MEL-28 melanoma; 5750 nM in the experiment on 786-0 renal; 4170 nM with SF-539 CNS; 14700 nM in the experiment with UACC-62 melanoma; 3680 nM in the experiment on HCT-15 colon. Also, the GI50 is 2950 nM with SW-620 colon, 12200 nM with SF-295 CNS and 2570 nM with MDA-MB-231 breast. In addition, the concentration for total growth inhibition (TGI) was greater than 100 µM with MDA-MB-435; 40 µM with SK-MEL-28 melanoma; 29.8 µM with 786-0 renal; 21.3 µM in the experiment with SF-539 CNS; 46800 nM with UACC-62 melanoma; 29.1 µM in the experiment on HCT-15 colon. In addition, the TGI in the experiment with SW-620 colon was determined as 10.7 µM; in the experiment on SF-295 CNS it was 45.4 µM; with MDA-MB-231 breast, 7.46 µM.
